Read-outs that look alike come from different tables or passages of the source.
How the values were obtained:
[1] = biological target: T1, AKT3 (Homo sapiens, UniProt Q9Y243); test: CEREP protein kinase assay; assay type: biochemical
T1 construct: purchased CEREP Panlabs (Eurofins)

[2] = biological target: T2, EPHB1 (Homo sapiens, UniProt P54762); test: CEREP protein kinase assay; assay type: biochemical
T2 construct: purchased CEREP Panlabs (Eurofins)
T2 sequence (P54762 18-984): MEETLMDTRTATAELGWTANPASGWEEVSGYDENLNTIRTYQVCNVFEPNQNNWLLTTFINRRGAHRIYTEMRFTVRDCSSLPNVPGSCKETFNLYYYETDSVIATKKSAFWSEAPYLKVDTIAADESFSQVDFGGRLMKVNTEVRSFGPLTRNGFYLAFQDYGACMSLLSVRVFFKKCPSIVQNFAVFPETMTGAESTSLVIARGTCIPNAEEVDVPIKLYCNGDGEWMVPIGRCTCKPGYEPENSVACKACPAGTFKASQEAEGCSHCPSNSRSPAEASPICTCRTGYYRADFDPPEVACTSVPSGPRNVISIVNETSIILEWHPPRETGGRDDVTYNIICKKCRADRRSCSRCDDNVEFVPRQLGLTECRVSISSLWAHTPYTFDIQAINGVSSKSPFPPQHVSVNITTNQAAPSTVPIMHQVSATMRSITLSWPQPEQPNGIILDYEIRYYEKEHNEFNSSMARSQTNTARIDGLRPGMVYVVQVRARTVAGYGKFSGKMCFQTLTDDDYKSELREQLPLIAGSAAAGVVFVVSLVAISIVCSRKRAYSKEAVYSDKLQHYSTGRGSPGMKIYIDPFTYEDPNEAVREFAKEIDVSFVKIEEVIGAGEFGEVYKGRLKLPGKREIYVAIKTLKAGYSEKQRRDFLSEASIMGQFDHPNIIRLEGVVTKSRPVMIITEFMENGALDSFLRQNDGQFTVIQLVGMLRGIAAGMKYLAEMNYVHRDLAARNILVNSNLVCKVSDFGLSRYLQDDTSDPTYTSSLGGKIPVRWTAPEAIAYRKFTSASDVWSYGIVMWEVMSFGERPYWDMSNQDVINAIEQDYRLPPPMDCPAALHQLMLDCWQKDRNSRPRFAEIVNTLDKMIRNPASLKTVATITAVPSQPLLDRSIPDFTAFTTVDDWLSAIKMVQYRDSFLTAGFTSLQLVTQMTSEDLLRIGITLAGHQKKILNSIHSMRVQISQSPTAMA

[3] = biological target: T3, RSK1 (Homo sapiens, UniProt Q15418); test: CEREP protein kinase assay; assay type: biochemical
T3 construct: purchased CEREP Panlabs (Eurofins)

[4] = biological target: T4, MLK1 (Homo sapiens, UniProt P80192); test: CEREP protein kinase assay; assay type: biochemical
T4 construct: purchased CEREP Panlabs (Eurofins)

[5] = test system: NCI-H1437 (lung); test: MS detection of ZMP in cultured cells; assay type: cell-based; settings: Homo sapiens, 16 hours
Protocol: (§1) Cells lines were acquired from cell banks, see supplemental material, grown using the cell banks recommended culture conditions (Supplemental Table 3). In some experiments noted “low folate” the cells were washed and grown in folate free RPMI-1640 media (Gibco #27016-021) supplemented with 5 ml 1 M Hepes, 5 ml 100 mM Na pyruvate, 2.5 mg/ml glucose and 10% defined FBS (Hyclone #SH30070) per 500 mL media for 5–7 days to deplete intracellular folate levels prior to the start of the experiment. Where noted, cells were maintained in complete “high folate” RPMI-1640 media (ATCC #30-2001) with 10% defined FBS to contrast with the low folate conditions.
(§2) ZMP was detected in cultured cells via mass spec analysis. Cells were plated in 96-well plates at 25,000 cells per well in 100 µL with either high or low folate RPMI media and incubated overnight at 37 °C with 5% CO2. Cells were treated with inhibitor compounds for 16 hours, 0.5% DMSO final concentration. Growth media was decanted and cells were lysed for 10 min at room temperature with 50 µL per well of 1x Sure Fire Lysis buffer (Perkin Elmer, SureFire kit component). Aliquots (40 µL) of standard or sample were combined in a deep 96-well plate with 160 µL of internal standard solution containing ^13C5-ZMP (custom synthesis) and ^13C5-AICAr (custom synthesis) at 100 ng/mL in 40 mM ammonium acetate, pH 4. 400 µL of dichloromethane was added to each sample. Samples were sealed, vortexed for 5 minutes, and placed in the refrigerator for at least 30 minutes. The samples were centrifuged at 4 °C for 10 minutes at 16,600 g. 75 µL of the aqueous layer were transferred to a clean 96-well plate and seal prior to analysis.
(§3) The LC-MS method utilizes a Shimadzu Prominence 20 A HPLC system connected to an AB Sciex 5500™ or an AB Sciex 6500™ triple quadrupole mass spectrometer. Extracted samples were separated using a Thermo Hypercarb™ Javelin guard column (2.1 × 20 mm, 5 µm) with an injection volume of 15 µL and a flow rate of 1 mL/minute.
(§4) ZMP, AICAr and dUMP were detected using positive ion TurboIonSpray® multiple reaction monitoring mode and the data were processed with AB Sciex MultiQuant™. Back-calculated ZMP concentrations were fit to a four-parameter logistic equation using ACTIVITYBASE 4.0 to determine EC50 values relative to the maximum observed metabolite levels.

[6] = test system: NCI-H1299; test: MS detection of ZMP in cultured cells; assay type: cell-based; settings: Homo sapiens, low folate RPMI media, 16 hours
Protocol: as §1, §2, §3, §4

[7] = test system: MIA PaCa-2 (pancreas); test: MS detection of ZMP in cultured cells; assay type: cell-based; settings: Homo sapiens, 16 hours
Protocol: as §1, §2, §3, §4

[8] = test system: HCT 116 (colon); test: MS detection of ZMP in cultured cells; assay type: cell-based; settings: Homo sapiens, 16 hours
Protocol: as §1, §2, §3, §4

[9] = test system: SW620 (colon); test: MS detection of ZMP in cultured cells; assay type: cell-based; settings: Homo sapiens, 16 hours
Protocol: as §1, §2, §3, §4

[10] = test system: NCI-H1993 (lung); test: MS detection of ZMP in cultured cells; assay type: cell-based; settings: Homo sapiens, low folate RPMI media, 16 hours
Protocol: as §1, §2, §3, §4

[11] = test system: NCI-H1155 (lung); test: MS detection of ZMP in cultured cells; assay type: cell-based; settings: Homo sapiens, 16 hours
Protocol: as §1, §2, §3, §4

[12] = RPMI media, read-out: ZMP EC50 Regular folate
[13] = low folate RPMI media, read-out: ZMP EC50 Low folate

T4 sequence (P80192 whole entry): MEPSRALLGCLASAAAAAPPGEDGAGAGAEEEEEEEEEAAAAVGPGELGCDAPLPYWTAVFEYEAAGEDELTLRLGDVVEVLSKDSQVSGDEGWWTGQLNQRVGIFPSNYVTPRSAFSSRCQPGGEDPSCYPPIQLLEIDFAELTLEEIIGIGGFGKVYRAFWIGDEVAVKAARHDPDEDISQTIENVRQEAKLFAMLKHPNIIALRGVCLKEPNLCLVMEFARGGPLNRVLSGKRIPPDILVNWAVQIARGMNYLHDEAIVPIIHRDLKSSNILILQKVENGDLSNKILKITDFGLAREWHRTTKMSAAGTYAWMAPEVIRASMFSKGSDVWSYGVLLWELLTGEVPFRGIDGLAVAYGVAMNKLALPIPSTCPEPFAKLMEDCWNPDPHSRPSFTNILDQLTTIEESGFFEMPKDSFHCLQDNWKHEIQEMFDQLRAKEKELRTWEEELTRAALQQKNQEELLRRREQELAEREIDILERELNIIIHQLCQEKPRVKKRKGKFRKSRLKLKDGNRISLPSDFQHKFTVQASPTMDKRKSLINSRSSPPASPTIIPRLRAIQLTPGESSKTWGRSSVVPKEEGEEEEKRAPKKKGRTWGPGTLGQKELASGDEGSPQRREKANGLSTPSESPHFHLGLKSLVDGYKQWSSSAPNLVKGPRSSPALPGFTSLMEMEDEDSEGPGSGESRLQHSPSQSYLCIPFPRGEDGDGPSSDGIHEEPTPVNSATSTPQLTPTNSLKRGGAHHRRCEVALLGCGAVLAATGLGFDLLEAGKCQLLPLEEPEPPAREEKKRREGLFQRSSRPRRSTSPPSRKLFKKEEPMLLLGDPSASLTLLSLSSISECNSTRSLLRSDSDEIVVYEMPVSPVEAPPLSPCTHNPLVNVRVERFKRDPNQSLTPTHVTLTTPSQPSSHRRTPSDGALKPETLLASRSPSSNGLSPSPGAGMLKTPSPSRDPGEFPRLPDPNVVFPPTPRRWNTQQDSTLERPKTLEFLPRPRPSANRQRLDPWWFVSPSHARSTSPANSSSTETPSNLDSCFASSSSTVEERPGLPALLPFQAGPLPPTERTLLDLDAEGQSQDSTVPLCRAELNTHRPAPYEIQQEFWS
T1 sequence (Q9Y243 whole entry): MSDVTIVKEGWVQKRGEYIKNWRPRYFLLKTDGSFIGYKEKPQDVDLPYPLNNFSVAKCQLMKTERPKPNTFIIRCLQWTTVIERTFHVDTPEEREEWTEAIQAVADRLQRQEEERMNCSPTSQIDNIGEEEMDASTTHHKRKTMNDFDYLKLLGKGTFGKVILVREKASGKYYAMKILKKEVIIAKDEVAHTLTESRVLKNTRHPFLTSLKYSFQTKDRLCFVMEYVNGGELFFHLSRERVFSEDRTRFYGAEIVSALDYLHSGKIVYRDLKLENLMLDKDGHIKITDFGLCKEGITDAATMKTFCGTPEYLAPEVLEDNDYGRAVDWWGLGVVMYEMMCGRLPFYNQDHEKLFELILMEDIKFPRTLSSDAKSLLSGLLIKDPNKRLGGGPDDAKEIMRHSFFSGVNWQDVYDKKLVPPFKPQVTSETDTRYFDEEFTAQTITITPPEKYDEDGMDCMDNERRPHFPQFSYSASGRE
T3 sequence (Q15418 whole entry): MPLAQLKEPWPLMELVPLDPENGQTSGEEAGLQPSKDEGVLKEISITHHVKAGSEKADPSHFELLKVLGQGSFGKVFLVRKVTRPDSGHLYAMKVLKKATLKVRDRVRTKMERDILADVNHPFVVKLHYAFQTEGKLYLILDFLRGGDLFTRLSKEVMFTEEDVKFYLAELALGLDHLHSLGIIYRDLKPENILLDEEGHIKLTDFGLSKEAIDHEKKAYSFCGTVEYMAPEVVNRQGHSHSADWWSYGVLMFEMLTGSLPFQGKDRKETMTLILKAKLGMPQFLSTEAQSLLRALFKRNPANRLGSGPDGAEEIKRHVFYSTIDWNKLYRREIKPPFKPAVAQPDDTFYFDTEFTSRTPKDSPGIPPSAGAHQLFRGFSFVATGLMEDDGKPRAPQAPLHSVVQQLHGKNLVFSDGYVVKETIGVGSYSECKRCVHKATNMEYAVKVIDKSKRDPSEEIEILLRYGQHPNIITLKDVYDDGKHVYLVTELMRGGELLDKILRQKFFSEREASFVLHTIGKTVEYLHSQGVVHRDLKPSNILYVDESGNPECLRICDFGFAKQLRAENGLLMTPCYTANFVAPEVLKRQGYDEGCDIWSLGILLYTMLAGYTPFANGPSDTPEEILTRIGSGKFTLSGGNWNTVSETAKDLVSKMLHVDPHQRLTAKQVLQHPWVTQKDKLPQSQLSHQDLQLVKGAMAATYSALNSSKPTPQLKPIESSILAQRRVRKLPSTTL

## O=c1[nH]ccc2cc(F)c(NS(=O)(=O)c3ccc(N4CC[C@@H](O)C4)s3)cc12 [LSN3213128, N-(6-Fluoro-1-oxo-1,2-dihydroisoquinolin-7-yl)-5-[(3R)-3-hydroxypyrrolidin-1-yl]thiophene-2-sulfonamide]
[1]; @ 0.2 uM
  inhibition at 0.2 µM: -0.699%
[1]; @ 2 uM
  inhibition at 2 µM: 5.67%
[1]; @ 20 uM
  inhibition at 20 µM: 13%
[2]; @ 0.2 uM
  inhibition at 0.2 µM: -10.2%
[2]; @ 2 uM
  inhibition at 2 µM: 11.7%
[2]; @ 20 uM
  inhibition at 20 µM: 57.1%
[3]; @ 0.2 uM
  inhibition at 0.2 µM: 0.638%
[3]; @ 2 uM
  inhibition at 2 µM: 8.18%
[3]; @ 20 uM
  inhibition at 20 µM: 11.4%
[4]; @ 0.2 uM
  inhibition at 0.2 µM: -7.95%
[4]; @ 2 uM
  inhibition at 2 µM: 2.73%
[4]; @ 20 uM
  inhibition at 20 µM: 3.99%
[5]; [12]
  EC50: 620 ± 354 nM
[5]; [13]
  EC50: 4.6 nM
[6]
  EC50: 4.1 nM
[7]; [12]
  EC50: 1700 nM
[7]; [13]
  EC50: 4.2 nM
[8]; [12]
  EC50: 369 ± 44 nM
[8]; [13]
  EC50: 2.7 ± 3.3 nM
[9]; SW-620, RPMI media, read-out: ZMP EC50 Regular folate
  EC50: 600 nM
[9]; SW-620, low folate RPMI media, read-out: ZMP EC50 Low folate
  EC50: 4.3 ± 0.9 nM
[10]
  EC50: 7.1 nM
[11]; [12]
  EC50: 380 nM
[11]; [13]
  EC50: 2.3 nM

Reference: paper PMC6193938, “Characterization of a novel AICARFT inhibitor which potently elevates ZMP and has anti-tumor activity in murine models” (Scientific Reports, 2018)
